Results published in patent EP2147913A1, “Styrylquinolines, their process of preparation and their therapeutic uses” (BioAlliance Pharma, priority 2008, dated 2010).
Like-named read-outs stand apart in the source and are kept apart here.

Key:
HBX2 HIV integrase [1] = target: T1, HBX2 HIV integrase (Human immunodeficiency virus type 1 group M subtype B, UniProt P04585); test: Strand Transfer Assay; format: biochemical
T1 construct: The pET-15b-IN plasmid contains the cDNA encoding the HBX2 HIV integrase; His tag (N, cleaved yes); made in house; host or cells: Escherichia coli BL21 (DE3)
Protocol: (§1) The pET-15b-IN plasmid contains the cDNA encoding the HBX2 HIV integrase. His-tagged integrase protein was overexpressed in Escherichia coli BL21 (DE3) and purified under native conditions. Briefly, at an OD of 0.8, fusion protein expression was induced in bacterial cultures by the addition of IPTG (1 mM). Cultures were incubated for 3 h at […], after which cells were centrifuged. The cell pellet was resuspended in ice-cold buffer A [20 mM Tris-HCl (pH 8), 1 M NaCl, 4 mM β-mercaptoethanol, and 5 mM imidazole], treated with lysozyme for 1 h on ice, and sonicated. After centrifugation (30 min at 10 000 rpm), the supernatant was filtered (0.45 µm) and incubated for at least 2 h with Ni-NTA agarose beads (Pharmacia). The beads were washed twice with 10 volumes of buffer A, 10 volumes of buffer A with 50 mM imidazole, and 10 volumes of buffer A with 100 mM imidazole. His-tagged integrase was then eluted with buffer A supplemented with 50 µM ZnSO4 and 1 M imidazole. The integrase concentration was adjusted to 0.1 mg/mL in buffer A. The fusion protein was cleaved using thrombin and dialyzed overnight against 20 mM Tris-HCl (pH 8), 1 M NaCl, and 4 mM β-mercaptoethanol. After removal of biotinylated thrombin by incubation with streptavidin-agarose magnetic beads (Novagen, Madison, WI), a second dialysis was performed for 2 h against 20 mM Tris-HCl (pH 8), 1 M NaCl, 4 mM β-mercaptoethanol, and 20% (v/v) ethylene glycol. Fractions were aliquoted and rapidly frozen at -80°C.
(§2) Oligonucleotides U5B (5'-[…]-3'), U5B-2 (5'-GTGTGGAAAATCTCTAGCA-3'), U5A (5'-[…]-3') were purchased from Eurogentec (Liege, Belgium) and further purified on an 18% denaturing acrylamide/urea gel. For processing, strand transfer, 100 pmol of U5B, U5B-2, respectively, were radiolabeled using T4 polynucleotide kinase and 50 µCi of [γ-32P]ATP (3000 Ci/mmol). […]
Processing, strand transfer reactions were performed using U5A-U5B-2, in buffer containing 20 mM Tris (pH 7.2), 50 mM NaCl, 10 mM DTT, 10mM MgCl2. […] Gels were analyzed using a STORM Molecular Dynamics phosphorimager and quantified with Image Quant™ 4.1 software.

[2] = system: wild type HIV-1 virus (NL 4.3 strains); test: Antiviral activity assay on Hela P4 cells; format: cell-based; conditions: Human immunodeficiency virus 1, HeLaP4, 48 h, read-out: P4 IC50 (µM)
Protocol: The antiviral activity is determined by infecting HelaP4 cells with a wild type HIV-1 virus (NL 4.3 strains at 3 ng) on cells in presence or absence of drugs.
A serial dilution of drugs is done to evaluate the EC50. The effective concentration is the concentration of product at which virus replication is inhibited by 50 percent.
After 48 hours incubation, the quantification is done by the evaluation of β-Galactosidase produced by the infected Hela P4 cells. The viral activity is evaluated by colorimetric assay, CPRG, followed by plate reading at 570 nm with a reference of 690 nm. The CPRG test is a colorimetric assay which allows to quantity the β-galactosidase produced by HIV-1 infected indicator cells (the β-Gal gene being under the control of the HIV-1 LTR).

[3] = system: wild type HIV-1 virus (NL 4.3 strains); test: Antiviral activity assay CEM cells; format: cell-based; conditions: Human immunodeficiency virus 1, CCRF-CEM
Protocol: The activity is determined by infecting CEM cells with a wild type HIV-1 virus (NL 4.3 strains at 3ng) on cells in presence or absence of drugs.
A serial dilution of drugs is done to evaluate the EC50.
The effective concentration is the concentration of product at which virus replication is inhibited by 50 percent.
After 48 hours incubation, the quantification is done by the evaluation of the viral protein p24 with a commercial Elisa Kit. P24 is a protein essential to the replication virus cycle. The quantification of this enzyme is proportional to the amount of virus produced by the infected cells.

[4] = Viability assay (MTT cytotoxicity); format: cell-based; conditions: human; for CC50 at 48 h: hela-p4 cells, 2 days
Protocol: The cytotoxicity of compounds was evaluated using un-infected and infected HeLa-P4 cell and CEM leukemia cells. CEM cell were obtained from the American Type Tissue Collection (Rockville, MD).
A serial dilution of drugs is done to evaluate the cytotoxicity concentration and is identified by CC50 (concentration of drug which induces 50% of cytotoxicity)
The HeLa-P4 was cultured in the presence or absence of compounds for 2 days. After this time period, cells were cultivated with MTT for 3 hours, further the medium is removed. And the lysis buffer is incubated for 1 hour, followed by plate reading at 540 nm in a microplate reader.

HBX2 HIV integrase [5] = target: T1, HBX2 HIV integrase; test: 3' LTR Processing Assay; format: biochemical
Protocol: as §1, §2
Processing reaction was performed using U5A-U5B, in buffer containing 20 mM Tris (pH 7.2), 50 mM NaCl, 10 mM DTT, and 10mM MgCl2. […] Gels were analyzed using a STORM Molecular Dynamics phosphorimager and quantified with Image Quant™ 4.1 software.

[6] = U5A-U5B-2 substrate DNA 12.5 nM, IN 200nM, 10mM MgCl2, up to 2 h at 37°C, read-out: Transfert IC50
[7] = U5A-U5B substrate DNA 12.5 nM, IN 200 nM, 10mM MgCl2, up to 2 h at 37°C, read-out: Processing IC50

COc1cc(/C=C/c2ccc3ccc(Br)c(O)c3n2)cc(O)c1O [SQE63]
IC50 (HBX2 HIV integrase [1]; [6]): 950 nM
IC50 [2]: 0.82 µM
EC50 ([3]; 48 h, read-out: CEM (µM)): 2.8 µM
CC50 at 48 h ([4]; read-out: Cytotoxicity IC50): 11700 nM
IC50 (HBX2 HIV integrase [5]; [7]): 950 nM

O=C(O)c1ccc2ccc(/C=C/c3cc(O)c(O)c([N+](=O)[O-])c3)nc2c1O [SQE67]
IC50 (HBX2 HIV integrase [1]; [6]): 180 nM
IC50 [2]: 6.2 µM
EC50 ([3]; 48 h, read-out: CEM (µM)): 42 µM
CC50 at 48 h ([4]; read-out: Cytotoxicity IC50): 35000 nM
IC50 (HBX2 HIV integrase [5]; [7]): 150 nM

COc1cc(/C=C/c2ccc3ccc(C(=O)O)c(O)c3n2)cc(O)c1O [FZ41, reference compound]
CC50 at 48 h ([4]; comparative example, read-out: Cytoto-IC50 IC50): > 100000 nM

O=C(O)c1ccc2ccc(/C=C/c3cc(O)c(O)c(Cl)c3)nc2c1O [SQE41, (E)-2-(3-chloro-4,5-dihydroxystyryl)-8-hydroxyquinoline-7-carboxylic acid]
IC50 (HBX2 HIV integrase [1]): 280 nM
IC50 [2]: 5 µM
EC50 ([3]; CEM cells, NL 4.3, 48 hours, p24 Elisa, read-out: CEM): 36 µM
IC50 at 2 days ([4]; HeLa-P4 cells): 22500 nM
IC50 (HBX2 HIV integrase [5]): 280 nM
